The record followed here is patent US9051280B2, “Tetraline and indane derivatives, pharmaceutical compositions containing them, and their use in therapy” (AbbVie Deutschland GmbH & Co. KG, priority 2010, dated 2015).

human GlyT1c transporter, sequence (P48067 whole entry): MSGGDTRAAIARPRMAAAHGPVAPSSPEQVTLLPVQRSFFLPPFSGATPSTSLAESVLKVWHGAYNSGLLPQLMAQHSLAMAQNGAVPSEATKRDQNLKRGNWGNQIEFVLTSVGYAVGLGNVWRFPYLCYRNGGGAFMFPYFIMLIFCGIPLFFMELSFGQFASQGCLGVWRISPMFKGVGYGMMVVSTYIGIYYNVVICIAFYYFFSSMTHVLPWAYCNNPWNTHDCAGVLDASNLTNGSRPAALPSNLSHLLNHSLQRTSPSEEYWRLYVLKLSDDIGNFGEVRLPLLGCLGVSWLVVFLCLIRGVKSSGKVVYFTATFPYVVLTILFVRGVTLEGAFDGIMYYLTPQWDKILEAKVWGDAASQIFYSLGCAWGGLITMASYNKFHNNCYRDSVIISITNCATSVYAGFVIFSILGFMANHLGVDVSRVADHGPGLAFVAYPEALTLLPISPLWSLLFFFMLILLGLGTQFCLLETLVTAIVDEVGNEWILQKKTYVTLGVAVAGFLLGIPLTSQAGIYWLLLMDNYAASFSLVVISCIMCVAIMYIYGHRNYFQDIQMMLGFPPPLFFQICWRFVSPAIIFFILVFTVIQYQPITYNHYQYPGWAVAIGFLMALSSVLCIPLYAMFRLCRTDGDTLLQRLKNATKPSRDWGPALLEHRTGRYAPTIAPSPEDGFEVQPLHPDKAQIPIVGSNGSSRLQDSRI

In this assay the target is human GlyT1c transporter (Homo sapiens (Human), UniProt P48067). As to the kind of experiment: Radioligand binding assay using recombinant CHO cell membranes expressing human GlyT1. Particulars: read-out: radioligand binding Kiapp. Here is the method: Biological Testing • 1. [^3H]-Glycine uptake into recombinant CHO cells expressing human GlyT1: Human GlyT1c expressing recombinant hGlyT1c—5_CHO cells were plated at 20,000 cells per well in 96 well Cytostar-T scintillation microplates (Amersham Biosciences) and cultured to sub-confluency for 24 h. For glycine uptake assays the culture medium was aspirated and the cells were washed once with 100 μl HBSS (Gibco BRL, #14025-050) with 5 mM L-Alanine (Merck #1007). 80 μl HBSS buffer were added, followed by 10 μl inhibitor or vehicle (10% DMSO) and 10 μl [^3H]-glycine (TRK71, Amersham Biosciences) to a final concentration of 200 nM for initiation of glycine uptake. The plates were placed in a Wallac Microbeta (PerkinElmer) and continuously counted by solid phase scintillation spectrometry during up to 3 hours. Nonspecific uptake was determined in the presence of 10 μM Org24598. IC50 calculations were made by four-parametric logistic nonlinear regression analysis (GraphPad Prism) using determinations within the range of linear increase of [^3H]-glycine incorporation between 60 and 120 min. • 2. Radioligand binding assays using recombinant CHO cell membranes expressing human GlyT1:
Radioligand binding to human GlyT1c transporter-expressing membranes was determined as described in Mezler et al., Molecular Pharmacology 74:1705-1715, 2008.
On to `NC[C@@H]1CCc2ccc(OCCNS(=O)(=O)CC3CC3)cc2[C@@H]1Cc1ccccc1` (stereo in doubt) [Example 196, N-[2-(7-Aminomethyl-8-benzyl-5,6,7,8-tetrahydro-naphthalen-2-yloxy)-ethyl]-C-cyclopropyl-methanesulfonamide], for which the Ki was at most 100 nM.

With `CCS(=O)(=O)NCCOc1ccc2c(c1)[C@H](Cc1ccccc1)[C@H](CN1CCC1)CC2` (stereo in doubt) [Example 200, Ethanesulfonic acid [2-(7-azetidin-1-ylmethyl-8-benzyl-5,6,7,8-tetrahydro-naphthalen-2-yloxy)-ethyl]-amide], the Ki is at most 500 nM.

Consider `Cn1cnc(S(=O)(=O)NCCOc2ccc3c(c2)[C@H](Cc2ccccc2)[C@H](CN2CCC2)CC3)c1` (stereo in doubt) [Example 202, 1-Methyl-1H-imidazole-4-sulfonic acid [2-(7-azetidin-1-ylmethyl-8-benzyl-5,6,7,8-tetrahydro-naphthalen-2-yloxy)-ethyl]-amide], for which the Ki is at most 100 nM.

Regarding `Cn1cnc(S(=O)(=O)NCc2ccc3c(c2)[C@H](Cc2ccccc2)[C@H](CN2CCC2)CC3)c1` (stereo in doubt) [Example 203, 1-Methyl-1H-imidazole-4-sulfonic acid (7-azetidin-1-ylmethyl-8-benzyl-5,6,7,8-tetrahydro-naphthalen-2-ylmethyl)-amide], the Ki was at most 100 nM.

Take `O=S(=O)(CC1CC1)NCCOc1ccc2c(c1)[C@H](Cc1ccccc1)[C@H](CN1CCC1)CC2` (stereo in doubt) [Example 201, N-[2-(7-Azetidin-1-ylmethyl-8-benzyl-5,6,7,8-tetrahydro-naphthalen-2-yloxy)-ethyl]-C-cyclopropyl-methanesulfonamide]: the Ki was at most 100 nM.

For the molecule `CCS(=O)(=O)NCCOc1ccc2c(c1)[C@H](Cc1ccccc1)[C@H](CNC)CC2` (stereo in doubt) [Example 198, Ethanesulfonic acid [2-(8-benzyl-7-methylaminomethyl-5,6,7,8-tetrahydro-naphthalen-2-yloxy)-ethyl]-amide], the Ki was at most 100 nM.

Turning to `CNC[C@@H]1CCc2ccc(OCCNS(=O)(=O)CC3CC3)cc2[C@@H]1Cc1ccccc1` (stereo in doubt) [Example 199, N-[2-(8-Benzyl-7-methylaminomethyl-5,6,7,8-tetrahydro-naphthalen-2-yloxy)-ethyl]-C-cyclopropyl-methanesulfonamide], the Ki is at most 100 nM.

Turning to `CCS(=O)(=O)NCCOc1ccc2c(c1)[C@H](Cc1ccccc1)[C@H](CN)CC2` (stereo in doubt) [Example 195, Ethanesulfonic acid [2-(7-aminomethyl-8-benzyl-5,6,7,8-tetrahydro-naphthalen-2-yloxy)-ethyl]-amide], the Ki was at most 100 nM.
